Changes are numbered by the printed parent chain.
The molecules below were run against T1, High affinity choline transporter 1 (Mus musculus, UniProt Q8BGY9) (assay: Inhibition of [3H]choline uptake at choline transporter 1 in mouse brain synaptosome).
T1 sequence (Q8BGY9 whole entry): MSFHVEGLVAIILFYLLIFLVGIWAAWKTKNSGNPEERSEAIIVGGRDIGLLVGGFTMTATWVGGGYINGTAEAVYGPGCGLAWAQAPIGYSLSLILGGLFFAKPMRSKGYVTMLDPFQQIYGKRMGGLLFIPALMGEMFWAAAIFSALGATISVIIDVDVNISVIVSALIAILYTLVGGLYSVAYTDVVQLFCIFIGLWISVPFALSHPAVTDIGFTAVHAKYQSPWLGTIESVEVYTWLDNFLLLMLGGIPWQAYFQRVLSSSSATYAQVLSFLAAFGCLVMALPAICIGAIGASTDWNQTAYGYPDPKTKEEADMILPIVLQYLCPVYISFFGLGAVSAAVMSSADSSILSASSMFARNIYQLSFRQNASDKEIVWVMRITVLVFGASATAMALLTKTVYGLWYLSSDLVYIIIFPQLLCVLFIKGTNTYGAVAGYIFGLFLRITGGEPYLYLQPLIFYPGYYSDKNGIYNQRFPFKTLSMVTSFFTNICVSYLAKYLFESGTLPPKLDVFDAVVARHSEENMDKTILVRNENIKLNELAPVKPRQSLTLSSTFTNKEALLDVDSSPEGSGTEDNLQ
Assay type: tissue-based

Compared with CNCCO, CN(C)CCO [DIMETHYLAMINOETHANOL] is 68-fold lower in Ki: 3800 µM for the first, 55.7 µM for the second. The second binds more tightly here.

Going from C[N+](C)(C)c1ccccc1 to C[N+](C)(C)C [TETRAMETHYLAMMONIUM], the Ki falls from 75.2 µM to 30.1 µM (2.5-fold). The second binds more tightly here.

Going from C[N+](C)(C)CCCO to C[N+](C)(C)CCCCO, the Ki rises from 2.2 µM to 310 µM (140-fold). The first binds more tightly here.

First: CN(C)CCCO
Second: C[N+](C)(C)CCO.[Cl-] [CHOLINE CHLORIDE]
The Ki of the first is 430-fold higher: 290 µM for the first, 0.681 µM for the second.

Compared with CC(=O)OCCC[N+](C)(C)C, CCOC(=O)CC[N+](C)(C)C is 1.8-fold higher in Ki: 190 µM for the first, 340 µM for the second.

Compared with COC(=O)CC[N+](C)(C)C, COc1cc(C#CCC[N+](C)(C)C)cc(OC)c1OC is 140-fold lower in Ki: 270 µM for the first, 2 µM for the second. The second binds more tightly here.

Compared with COc1cc(C#CCC[N+]23CCC(CC2)C3)cc(OC)c1OC, COc1cc(C#CCC[N+]23CCC(CC2)CC3)cc(OC)c1OC is 1.8-fold higher in Ki: 0.05 µM for the first, 0.09 µM for the second. The first binds more tightly here.

CC[N+]1(CCC#Cc2cc(OC)c(OC)c(OC)c2)CCCCC1 and CC[N+]1(CCC#Cc2cc(OC)c(OC)c(OC)c2)CCCC1 are within 1.5-fold of each other in Ki: 0.18 µM for the first, 0.2 µM for the second.

Going from CCCCCCCC[N+]1(CCC#Cc2cc(OC)c(OC)c(OC)c2)CCCCC1 to CCCCC[N+]1(CCC#Cc2cc(OC)c(OC)c(OC)c2)CCCCC1, the Ki falls from 0.23 µM to 0.02 µM (12-fold).

Compared with Cc1cc(C)nc(C)c1, CC[N+](CC)(CC)CCC#Cc1cc(OC)c(OC)c(OC)c1 is 150-fold lower in Ki: 107 µM for the first, 0.701 µM for the second. The second binds more tightly here.

Compared with C[N+]12CCC(CC1)C(=O)C2, C[N+]12CCC(CC1)CC2 is 9-fold higher in Ki: 0.521 µM for the first, 4.7 µM for the second.

First: C1CN2CCC1CC2
Second: OCC[N+]12CCC(CC1)CC2
The Ki of the first is 63-fold higher: 40.1 µM for the first, 0.64 µM for the second.

First: C[N+]12CCC(O)(CC1)CC2
Second: CC1C(O)C2CC[N+]1(C)CC2 (configuration not stated)
The Ki of the first is 2.9-fold lower: 72.1 µM for the first, 210 µM for the second.

C[n+]1cccc(C(N)=O)c1 and Nc1ccncc1 [DALFAMPRIDINE] are within 1.5-fold of each other in Ki: 361 µM for the first, 481 µM for the second.

Compared with CCCCCCCCCCCCCCCC[n+]1ccccc1, CCCC[N+](CCCC)(CCCC)CCCC [TETRABUTYLAMMONIUM] is 33-fold higher in Ki: 32.1 µM for the first, 1050 µM for the second.

Compared with Nc1ccncc1N [AMIFAMPRIDINE], CN1CCC[C@H]1c1cccnc1 [NICOTINE] is 1.6-fold lower in Ki: 820 µM for the first, 520 µM for the second. The second binds more tightly here.

First: CNC [DIMETHYLAMINE]
Second: CN(C)C [TRIMETHYLAMMONIUM]
The Ki of the first is 28-fold higher: 9420 µM for the first, 340 µM for the second.

First: CN [METHYLAMINE]
Second: CC[N+](CC)(CC)CC [TETRYLAMMONIUM]
The Ki of the first is 140-fold higher: 35100 µM for the first, 260 µM for the second. The second binds more tightly here.

Each molecule was assayed against T2, High affinity choline transporter 1 (Rattus norvegicus, UniProt Q9JMD7) (assay: Binding affinity to rat choline transporter 1).
T2 sequence (Q9JMD7 whole entry): T1 sequence (Q8BGY9 whole entry) with S2P, P35A, Y307F, L386F, S467P, V513I, A519S

For C[N+]1(C)CCO[C@@](O)(c2ccc(-c3ccc([C@@]4(O)C[N+](C)(C)CCO4)cc3)cc2)C1 [HEMICHOLINIUM DIBROMIDE], the Ki was 0.01 µM.

Reference: ChEMBL document CHEMBL1208774, “3-D-QSAR and docking studies on the neuronal choline transporter” (Bioorg Med Chem Lett, 2010)
